Assay results from patent publication US8158785B2, “5,7-disubstituted[1.3]thiazolo [4,5-D] pyrimidin-2(3H)-amine derivatives and their use in therapy” (AstraZeneca AB, priority 2006, dated 2012).

Target: T1, hCX3CR1 (Homo sapiens, UniProt P49238)
T1 construct: expressed in transfected cells; host or cells: HEKS 293 (human embryonic kidney suspension) cells stably expressing chimeric G-protein Gαqi5
T1 sequence (P49238 1-355): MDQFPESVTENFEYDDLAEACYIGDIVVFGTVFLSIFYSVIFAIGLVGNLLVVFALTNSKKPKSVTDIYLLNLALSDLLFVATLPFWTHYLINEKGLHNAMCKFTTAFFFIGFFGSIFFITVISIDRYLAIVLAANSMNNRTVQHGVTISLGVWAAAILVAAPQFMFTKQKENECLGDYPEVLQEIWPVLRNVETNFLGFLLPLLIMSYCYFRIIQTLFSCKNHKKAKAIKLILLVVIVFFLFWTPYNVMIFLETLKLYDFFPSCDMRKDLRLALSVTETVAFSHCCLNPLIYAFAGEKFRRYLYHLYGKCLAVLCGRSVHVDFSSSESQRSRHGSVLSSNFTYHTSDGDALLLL
Assay: in vitro hCX3CR1 binding assay ([125I]-fractalkine competition binding, membranes)
Conditions: competition with 10 pM [125I]-fractalkine, membranes of HEKS 293 cells expressing hCX3CR1, 25° C., 24 h
Procedure: The complete human CX3CR1 cDNA (GenBank accession number U20350) was extracted from human brain mRNA (Superscript, Life Technologies) and ligated into pCR-Blunt II TOPO vector (InVitrogen). The insert corresponding hCX3CR1 was isolated and further subcloned into pcDNA3.1zeo. Plasmid DNA was prepared using Plasmid Midi Kit (Qiagen). Using Superfect Transfection Reagent (Qiagen) according to the manufacturer's protocol the expression plasmid for hCX3CR1 was then introduced into human embryonic kidney suspension (HEKS) 293 cell line containing a vector for stable expression of a chimeric G-protein Gαqi5. A stable clone was generated utilizing zeocin (500 μg/mL) and hygromycin (100 μg/mL) selection. For further applications the cells were maintained in Dulbecco's modified Eagle's medium/Ham's nutrient mix F12 (DMEM/F12) containing pyridoxine and supplemented with 10% (v/v) fetal bovine serum, 2 mM L-glutamine, 100 U/ml penicillin and […] streptomycin, 250 μg/mL zeocin and 100 μg/mL hygromycin.
Cells are grown at 37° C. and 5% CO2 and harvested at 60-80% confluence in buffer containing 10 mM Tris-HCl pH 7.4, 5 mM EDTA, 0.1 mg/mL bacitracin. The cells are centrifuged at 300×g for 10 min and the pellet is resuspended in harvesting buffer (10 mM Tris-HCl, pH 7.4, 5 mM ethylenediaminetetra-aceticacid (EDTA) and 0.1 mg/mL bacitracin), pooled and homogenised using a Dounce homogeniser. The homogenate is centrifuged in 48000×g for 10 min and resuspended in harvesting buffer using Ultra-Turrax T8. Membrane aliquots are stored at −80° C. Protein concentration was determined in microtiter plates as described by Harrington (1990, Anal. Biochem. 186, 285-287).
Competition binding studies of [^125I]fraktalkine were performed in 2 mL 96-deep-well plates (Beckman, Germany) in a total volume of 1000 μL/well. Each well contained 10 pM [^125I]-fractalkine and membrane equivalent to receptor concentration of 1 pM in assay buffer (50 mM Hepes-KOH, pH 7.4, 10 mM MgCl2, 1 mM EDTA, 0.1% (w/v) gelatine). Ten concentrations (2 points/log unit) of the test compounds were pre-dissolved in DMSO and added to reach a final concentration of 1% (v/v) DMSO. The assay was initiated with the addition of membranes and incubated at 25° C. for 24 h. The reactions were stopped by rapid filtration through Whatman GF/B glass fiber filters pretreated with 0.3% polyethylimine and subsequent washing with ice-cold buffer (10 mM Hepes-KOH pH 7.4, 500 mM NaCl) using a Brandel receptor binding harvester. Scintillation cocktail was added and radioactivity was determined in a Packard 2500TR liquid scintillation counter. (Perkin Elmer, USA)

| SMILES | Ki |
| --- | --- |
| CC(C)C[C@H](CO)Nc1nc(S[C@@H](C)c2ccncc2Cl)nc2nc(N)sc12 [Example 9b, (2R)-2-[(2-amino-5-{[(1S)-1-(3-chloropyridin-4-yl)ethyl]thio}[1,3]thiazolo[4,5-d]pyrimidin-7-yl)amino]-4-methylpentan-1-ol] | 35 nM |
| CC(C)C[C@H](CO)Nc1nc(S[C@@H](C)c2ccc(Cl)cn2)nc2nc(N)sc12 [Example 2, (2R)-2-[(2-Amino-5-{[(1S)-1-(5-chloropyridin-2-yl)ethyl]thio}[1,3]thiazolo[4,5-d]pyrimidin-7-yl)amino]-4-methylpentan-1-ol] | 6.2 nM |
| CC(C)C[C@H](CO)Nc1nc(S[C@@H](C)c2cc(C#N)ccn2)nc2nc(N)sc12 [Example 8, 2-{(1S)-1-[(2-Amino-7-{[(1R)-1-(hydroxymethyl)-3-methylbutyl]amino}[1,3]thiazolo[4,5-d]pyrimidin-5-yl)thio]ethyl}isonicotinonitrile] | 81 nM |
| CCC[C@H](CO)Nc1nc(S[C@@H](C)c2ccc(Cl)nc2)nc2nc(N)sc12 [Example 7, (2R)-2-[(2-Amino-5-{[(1S)-1-(6-chloropyridin-3-yl)ethyl]thio}[1,3]thiazolo[4,5-d]pyrimidin-7-yl)amino]pentan-1-ol] | 149 nM |
| CCC[C@H](CO)N(C)c1nc(S[C@@H](C)c2ccc(Cl)nc2)nc2nc(N)sc12 [Example 6, (2R)-2-[(2-amino-5-{[(1S)-1-(6-chloropyridin-3-yl)ethyl]thio}[1,3]thiazolo[4,5-d]pyrimidin-7-yl)(methyl)amino]pentan-1-ol] | 203 nM |

Second part, the compound after the results:

| Ki | SMILES |
| --- | --- |
| 23 nM | CC(C)C[C@H](CO)Nc1nc(S[C@@H](C)c2ncccc2F)nc2nc(N)sc12 [Example 5, (2R)-2-[(2-Amino-5-{[(1S)-1-(3-fluoropyridin-2-yl)ethyl]thio}[1,3]thiazolo[4,5-d]pyrimidin-7-yl)amino]-4-methylpentan-1-ol] |
| 6.5 nM | CC(C)C[C@H](CO)Nc1nc(S[C@@H](C)c2ccc(F)cn2)nc2nc(N)sc12 (single isomer, unassigned) [Example 3] |
| 21 nM | CC(C)C[C@H](CO)Nc1nc(SC(C)c2ccc(F)cn2)nc2nc(N)sc12 (mixture of isomers) [Example 1, (2R)-2-[(2-Amino-5-{[1-(5-fluoropyridin-2-yl)ethyl]thio}[1,3]thiazolo[4,5-d]pyrimidin-7-yl)amino]-4-methylpentan-1-ol] |
